Laboratory results as given in patent US20260130925A1, “METHODS FOR TREATING CANCER” (Genesis Molecular AI, Inc., priority 2022, published 2026).

Tests used:
PI3K H1047R = PI3K H1047R (Homo sapiens, UniProt P42336, H1047R); experiment: PI3K H1047R ADP-Glo (PI/PS); type: biochemical; parameters: PI3K H1047R ADP-Glo (PI/PS) IC50: H1047R Selectivity: reference not given here; conditions: for IC50: PI/PS substrate
[1] = molecular target: T1, PI3Kα H1047R in T47D cells (Homo sapiens, UniProt P42336, H1047R); experiment: PI3Kα cellular assay: T47D pAKT S473 HTRF; type: cell-based; conditions: for T47D pAKT S473 HTRF IC50 (H1047R): T47D (H1047R) selectivity over SKBR3 (WT): T47D (H1047R) versus SKBR3 (WT) cells; for IC50: T47D cells (H1047R), serum starved, 1 hr compound, 20 ng/ml EGF 10 min
T1 construct: endogenous in cells; host or cells: T47D
Protocol: PI3Kα cellular assay experimental procedure: SKBR3 or T47D cells are seeded in DMEM containing 10% FBS at 25 k cells/well into 96-well cell culture format. Cells are incubated overnight at 37° C. in a 5% CO2 incubator and the following day cell media is aspirated, adherent cells are washed 1× with room temperature PBS prior to serum-free media application. Cells are returned to 37° C. 5% CO2 incubator and incubated a further 16 hrs. Compounds are added to serum starved adherent cells with a top dose of 10,000 nM and 3× multiple dose reductions for a minimum dose of 0.5 nM diluted in DMSO. Cell/compound incubation continues for 1 hr in a 37° C., 5% CO2 incubator prior to 10 minute PIK3CA stimulation with 20 ng/ml EGF. Cells treated with 0.1% DMSO and 20 ng/mL EGF are employed as negative control, cells treated with 10 uM Alpelisib and 20 ng/mL EGF are employed as a positive control. After 10 mins, plates are removed from incubator and cells are lysed with buffer and shaking 45 minutes. 20 μL of lysate is transferred to an opti-384 plate and 2.5 μl of Phospho-AKT d2 antibody with 2.5 μl of Phospho-AKT Eu Cryptate solution in the detection buffer are added to each well. 384 well plate is left overnight at room temperature before reading HTRF on an Envision plate reader.

PI3K H1047R, sequence (P42336 whole entry H1047R): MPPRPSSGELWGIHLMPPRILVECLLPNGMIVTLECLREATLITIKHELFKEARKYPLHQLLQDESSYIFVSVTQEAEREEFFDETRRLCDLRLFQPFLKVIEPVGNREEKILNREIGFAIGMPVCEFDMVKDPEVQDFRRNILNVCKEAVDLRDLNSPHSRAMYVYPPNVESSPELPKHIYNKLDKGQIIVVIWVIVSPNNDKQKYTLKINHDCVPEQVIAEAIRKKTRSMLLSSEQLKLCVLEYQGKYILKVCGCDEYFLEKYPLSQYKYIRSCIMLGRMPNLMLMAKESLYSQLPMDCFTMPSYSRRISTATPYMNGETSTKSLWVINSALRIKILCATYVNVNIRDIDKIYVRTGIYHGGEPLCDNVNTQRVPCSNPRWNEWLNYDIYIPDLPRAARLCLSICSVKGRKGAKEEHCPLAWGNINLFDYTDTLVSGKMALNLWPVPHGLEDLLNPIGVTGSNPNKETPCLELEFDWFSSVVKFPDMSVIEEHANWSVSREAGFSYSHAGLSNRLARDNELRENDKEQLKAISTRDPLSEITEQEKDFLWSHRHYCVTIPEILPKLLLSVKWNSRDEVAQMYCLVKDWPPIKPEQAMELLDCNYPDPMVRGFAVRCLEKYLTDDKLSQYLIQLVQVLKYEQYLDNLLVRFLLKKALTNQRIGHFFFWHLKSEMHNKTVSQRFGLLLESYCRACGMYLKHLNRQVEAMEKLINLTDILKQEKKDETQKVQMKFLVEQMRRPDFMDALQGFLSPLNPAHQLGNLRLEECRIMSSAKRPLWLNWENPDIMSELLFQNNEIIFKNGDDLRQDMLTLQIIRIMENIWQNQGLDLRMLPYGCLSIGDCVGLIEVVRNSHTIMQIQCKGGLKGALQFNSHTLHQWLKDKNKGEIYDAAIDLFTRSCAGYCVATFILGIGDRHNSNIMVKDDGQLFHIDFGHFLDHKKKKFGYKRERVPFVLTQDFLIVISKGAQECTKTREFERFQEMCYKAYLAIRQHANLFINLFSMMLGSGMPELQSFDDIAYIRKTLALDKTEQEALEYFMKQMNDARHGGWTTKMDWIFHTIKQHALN
PI3K H1047R, sequence (P27986 whole entry partner): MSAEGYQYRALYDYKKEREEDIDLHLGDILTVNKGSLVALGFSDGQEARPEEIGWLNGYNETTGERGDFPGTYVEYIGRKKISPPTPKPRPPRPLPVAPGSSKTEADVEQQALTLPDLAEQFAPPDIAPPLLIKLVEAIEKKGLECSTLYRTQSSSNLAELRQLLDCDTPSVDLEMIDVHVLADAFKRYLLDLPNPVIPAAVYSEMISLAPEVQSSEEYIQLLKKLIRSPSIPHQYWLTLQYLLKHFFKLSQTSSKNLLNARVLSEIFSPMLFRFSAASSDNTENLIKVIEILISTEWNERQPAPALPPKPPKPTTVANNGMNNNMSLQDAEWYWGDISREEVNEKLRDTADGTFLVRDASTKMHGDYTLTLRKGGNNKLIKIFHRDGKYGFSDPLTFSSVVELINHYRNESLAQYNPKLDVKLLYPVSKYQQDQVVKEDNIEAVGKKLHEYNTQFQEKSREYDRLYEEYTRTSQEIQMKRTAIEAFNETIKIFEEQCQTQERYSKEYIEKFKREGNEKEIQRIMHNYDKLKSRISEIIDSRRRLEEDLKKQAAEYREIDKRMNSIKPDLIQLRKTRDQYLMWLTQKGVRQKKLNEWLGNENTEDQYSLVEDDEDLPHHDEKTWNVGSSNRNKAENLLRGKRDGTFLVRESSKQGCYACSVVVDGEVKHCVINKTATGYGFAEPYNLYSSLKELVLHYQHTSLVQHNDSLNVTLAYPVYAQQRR
T1 sequence (P42336 whole entry H1047R): as the sequence (P42336 whole entry H1047R) above
T1 sequence (P27986 whole entry partner): as the sequence (P27986 whole entry partner) above

Structure (SMILES) | PI3K H1047R ADP-Glo (PI/PS) IC50: H1047R Selectivity (PI3K H1047R) | IC50 (PI3K H1047R) [nM] | T47D pAKT S473 HTRF IC50 (H1047R): T47D (H1047R) selectivity over SKBR3 (WT) [1] | IC50 [1] [nM]
Cc1cc(C(C)Nc2ccccc2C(=O)O)c2nc(-c3cc(C)c4oc(=O)[nH]c4c3)ncc2c1 (stereo not shown) [Compound 5] |  | ≥ 10000 | B (B denotes 20-fold≥value>5-fold) | 750 to 2000
Cc1cc(C(C)Nc2ccccc2C(=O)O)c2[nH]c(N3CCOCC3)nc(=O)c2c1 (stereo not shown) [Compound 19] | B (B denotes 20-fold≥value>5-fold) | 1000 to 10000 | B (B denotes 20-fold≥value>5-fold) | 750 to 2000
Cc1cc(C(C)Nc2ccccc2C(=O)O)c2nc(N3CCC(C)(C)CC3)nc(C#N)c2c1 (stereo not shown) [Compound 26, 2-((1-(4-cyano-2-(4,4-dimethylpiperidin-1-yl)-6-methylquinazolin-8-yl)ethyl)amino)benzoic acid] | C (C denotes ≤5-fold) | ≥ 10000 | C (C denotes ≤5-fold) | ≥ 2000
Cc1cc([C@@H](C)Nc2ccccc2C(=O)O)c2nc(-c3ccc4c(c3)c(C)nn4C)n(C)c(=O)c2c1 [Compound 41] |  | ≥ 10000 | C (C denotes ≤5-fold) | ≥ 2000
Cc1cc([C@H](C)Nc2ccccc2C(=O)O)c2cc(N3CCOCC3)ncc2c1 [Compound 58] |  | ≥ 10000 | C (C denotes ≤5-fold) | ≥ 2000
Cc1cc([C@H](C)Nc2ccccc2C(=O)O)c2nc(N3CCC(C)(C)CC3)nc(C#N)c2c1 [Compound 60] |  | ≥ 10000 | C (C denotes ≤5-fold) | ≥ 2000
Cc1cc([C@H](C)Nc2ccccc2C(=O)O)c2cc(-c3ccc(F)cc3)n(C)c(=O)c2c1 [Compound 75] |  | ≥ 10000 | B (B denotes 20-fold≥value>5-fold) | 750 to 2000
Cc1cc(C(C)Nc2ccccc2C(=O)O)c2cc(-c3ccc(F)cc3)n(C)c(=O)c2c1 (stereo not shown) [Compound 77] | A (A denotes >20-fold) | < 1000 | A (A denotes >20-fold) | < 750
Cc1cc([C@@H](C)Nc2ccccc2C(=O)O)c2nc(-c3cnc(C)c(Cl)c3)n(C)c(=O)c2c1 [Compound 140] |  |  | B (B denotes 20-fold≥value>5-fold) | < 750
Cc1cc([C@@H](C)Nc2ccccc2C(N)=O)c2nc(-c3cccnc3)n(C)c(=O)c2c1 [Compound 141] |  |  | B (B denotes 20-fold≥value>5-fold) | < 750
Cc1cc([C@@H](C)Nc2ccccc2S(N)(=O)=O)c2nc(-c3cccnc3)n(C)c(=O)c2c1 [Compound 142] |  |  | A (A denotes >20-fold) | < 750
Cc1cc([C@@H](C)Nc2ccccc2C(=O)O)c2nc(-c3ccnc(C#N)c3)n(C)c(=O)c2c1 [Compound 143] |  |  | A (A denotes >20-fold) | < 750
Cc1cc([C@H](C)Nc2ccccc2C(=O)O)c2nc(N3Cc4ccccc4C3)nc(N3CC(O)C3)c2c1 [Compound 144] |  |  | B (B denotes 20-fold≥value>5-fold) | 750 to 2000
Cc1cc([C@@H](C)Nc2ccccc2C(=O)O)c2nc(-c3ccnc(C4CC4)c3)n(C)c(=O)c2c1 [Compound 145] |  |  | B (B denotes 20-fold≥value>5-fold) | < 750
Cc1cc([C@@H](C)Nc2ccccc2C(=O)O)c2nc(N3Cc4ccccc4C3)nc(OC3COC3)c2c1 [Compound 146] |  |  | A (A denotes >20-fold) | < 750
CCOc1nc(N2Cc3ccccc3C2)nc2c([C@@H](C)Nc3ccccc3C(=O)O)cc(C)cc12 [Compound 147] |  |  | C (C denotes ≤5-fold) | ≥ 2000

Next, values leading:

PI3K H1047R ADP-Glo (PI/PS) IC50: H1047R Selectivity (PI3K H1047R) | IC50 (PI3K H1047R) [nM] | T47D pAKT S473 HTRF IC50 (H1047R): T47D (H1047R) selectivity over SKBR3 (WT) [1] | IC50 [1] [nM] | Structure (SMILES)
A (A denotes >20-fold) | < 1000 | A (A denotes >20-fold) | < 750 | Cc1cc([C@@H](C)Nc2ccccc2C(=O)O)c2nc(-c3ccc(F)cc3)n(C)c(=O)c2c1 (single isomer, unassigned) [Compound 32]
B (B denotes 20-fold≥value>5-fold) | < 1000 | A (A denotes >20-fold) | < 750 | Cc1cc([C@H](C)Nc2ccccc2C(=O)O)c2nc(-c3ccc4c(c3)c(C)nn4C)n(C)c(=O)c2c1 (single isomer, unassigned) [Compound 33]
B (B denotes 20-fold≥value>5-fold) | < 1000 | A (A denotes >20-fold) | < 750 | Cc1cc([C@@H](C)Nc2ccccc2C(=O)O)c2nc(N3CCC(C)(C)CC3)ncc2c1 [Compound 8]
A (A denotes >20-fold) | < 1000 | A (A denotes >20-fold) | < 750 | Cc1cc(C(C)Nc2ccccc2C(=O)O)c2nc(N3CCC(C)(C)CC3)ncc2c1 (stereo not shown) [Compound 10]
A (A denotes >20-fold) | < 1000 | A (A denotes >20-fold) | < 750 | Cc1cc(C(C)Nc2ccccc2C(=O)O)c2cc(N3CCOCC3)ncc2c1 (stereo not shown) [Compound 37]
A (A denotes >20-fold) | < 1000 | A (A denotes >20-fold) | < 750 | Cc1cc(C(C)Nc2ccccc2C(=O)O)c2nc(-c3ccc(F)cc3)n(C)c(=O)c2c1 (stereo not shown) [Compound 38]
A (A denotes >20-fold) | < 1000 | A (A denotes >20-fold) | < 750 | Cc1cc(C(C)Nc2ccccc2C(=O)O)c2nc(-c3ccc4c(c3)c(C)nn4C)n(C)c(=O)c2c1 (stereo not shown) [Compound 40]
A (A denotes >20-fold) | < 1000 | A (A denotes >20-fold) | < 750 | Cc1cc(C(C)Nc2ccccc2C(=O)O)c2cc(N3Cc4ccccc4C3)nc(O)c2c1 (stereo not shown) [Compound 51]
A (A denotes >20-fold) | < 1000 | A (A denotes >20-fold) | < 750 | Cc1cc([C@@H](C)Nc2ccccc2C(=O)O)c2cc(N3CCOCC3)ncc2c1 [Compound 57]
A (A denotes >20-fold) | < 1000 | A (A denotes >20-fold) | < 750 | Cc1cc(C(C)Nc2ccccc2C(=O)O)c2cc(-c3ccnc(C4CC4)c3)nc(C(N)=O)c2c1 (stereo not shown) [Compound 73]
A (A denotes >20-fold) | < 1000 | A (A denotes >20-fold) | < 750 | Cc1cc(C(C)Nc2ccccc2C(=O)O)c2cc(OC3CCOCC3)ncc2c1 (stereo not shown) [Compound 74]
A (A denotes >20-fold) | < 1000 | A (A denotes >20-fold) | < 750 | Cc1cc([C@@H](C)Nc2ccccc2C(=O)O)c2cc(-c3ccc(F)cc3)n(C)c(=O)c2c1 [Compound 76]
